Source: patent US20230157302A1, “METHODS FOR […] MYCOTOXIN PRODUCTION” (Institut National de Recherche Pour L'Agriculture, …, priority 2020, published 2023)
“Also recorded” adds a separate entry of the source.

What was measured:
[1] = system: F. graminearum CBS 185.32; format: cell-based, Fusarium graminearum
[2] = system: F. graminearum CBS 185.32; format: cell-based, Fusarium graminearum; remark: listed apart in the source
[3] = system: Fusarium culmorum and Fusarium graminearum; details: cited from earlier work

Substance | 15-ADON production [1] | DON production [1] | fungal growth / dry fungal biomass (antifungal activity) [2] | also measured
C G N F L K R T C I C V K K (CGNFLKRTCICVKK) [TickCore3, conserved linear gamma core moiety of the tick defensin DefMT3] | non-detectable levels; also recorded: residual levels | non-detectable levels | significantly inhibited fungal growth at all the concentrations tested | inhibition of TCTB mycotoxin production (DON and 15-ADON together) [1]: inhibits the production of category B trichothecenes
C G N F L K R T C I C V K T (CGNFLKRTCICVKT) [TickCore3-K14T] |  |  | strong antifungal activity only at 50 μM | 
C G N F L K R T C I C V T K (CGNFLKRTCICVTK) [TickCore3-K13T] |  |  | strong antifungal activity only at 50 μM | 
C G N F L K T T C I C V K K (CGNFLKTTCICVKK) [TickCore3-R7T] |  |  | strong antifungal activity only at 50 μM | 
C G N F L T R T C I C V K K (CGNFLTRTCICVKK) [TickCore3-K6T] |  |  | no antifungal activity below the concentration at 50 μM | inhibition of TCTB mycotoxin production (DON and 15-ADON together) [1]: reduction in the ability to inhibit TCTB production is particularly pronounced
C(CH3)GNFLKRTC(CH3)IC(CH3)VKK [TickCore3-CH3-123] | significantly less | significantly less |  | inhibition of TCTB mycotoxin production (DON and 15-ADON together) [1]: little effect on the inhibitory effect affecting TCTB production
C(CH3)GNFLKRTCRICVKK [TickCore3-CH3-1 Ox] |  |  | no effect on fungal growth at any of the concentrations tested | 15-ADON levels [1]: significant reduction; DON levels [1]: significant reduction
CGNFLKRTC(CH3)ICVKK [TickCore3-CH3-2 Ox] | did not change significantly | significant increase | no effect on fungal growth at any of the concentrations tested | 
CGNFLKRTCIC(CH3)VKK [TickCore3-CH3-3 Ox] | significant increase | significant increase | no effect on fungal growth at any of the concentrations tested | 
DefMT6: tick defensin described in Tonk et al., 2015 (GFGCPLNQGACHNHCRSIKRRGGYCSGIIKQTCTCYRK; DefMT6) [reference compound] |  |  |  | antibacterial and antifungal activity [3]: antibacterial and antifungal activity
GGYYCPFRQDKCHRHCRSFGRKAGYCGNFLKRTCICVKK (DefMT3) [tick defensin, synthesized by SPPS] | shows inhibitory activity | shows inhibitory activity |  | antibacterial and antifungal activity [3]: antibacterial and antifungal activity
